For data set [1], the system named is BEAS-2B cells. The experiment in a line: CellTiter Glo assay. Conditions: P8-H tested up to 30 μM. In general terms: ATP-based viability assays read luminescence as a measure of living cells.
From the text: performed according to manufacturer instruction and using BEAS-2B cells
In data set [2] the test system is NQO1 gene expression in BEAS-2B cells (Homo sapiens). Nature of the data set: BEAS-2B NQO1 assay (qPCR of NQO1 mRNA). In kind it is cell-based. Conditions: 24 h, concentrations of up to 10 μM. From the text: The effect of peptides on Nrf2-dependent gene expression was investigated in BEAS-2B cells, where we determined the upregulation of the mRNA of NAD(P)H quinone dehydrogenase (NQO1) by qPCR. The expression of NQO1 is Nrf2-dependent and it is one of the two major quinone reductases, which play a crucial role in protecting cells from oxidative stress.[40] ^§§ In the context of this study we chose BEAS-2B cells as a representative model for epithelial cells. The presence of serum has been reported to affect BEAS-2B cell phenotype. Specifically, exposure of BEAS-2B to FBS has been associated with squamous differentiation, alteration in cytokine secretion and response to toxicants.[42–44] […] In order to improve the cellular uptake, we took of advantage of the 2C-PS moiety, which not only allows the easy synthesis of a variety of macrocycles of different ring sizes, but also permits the facile introduction of a diverse set of moieties, which could enhance cell permeability. We pursued a diverse set of strategies to make the Keap1 peptide more cell permeable, namely: masking of the acidic amino acids with methyl esters, introduction of polyarginine peptides, GWWG-polyarginine peptides or a long-chain fatty acid tag onto the staple, as well as peptide shortening and a combination of these. The rationale behind these strategies is explained herein, and details of their synthesis can be found in the ESI. ^†
Cellular Biology Experimental
(Thermo Fisher Scientific, USA).
calculated using QunatStudio 7 software.

Data set [3] concerns the target T1, human Keap1 Kelch domain (A321-T609) (Homo sapiens, UniProt Q14145).
T1 construct: human Keap1 Kelch domain (A321-T609) fused with N-terminal 6x His-tag; 6xHis (N); made in house
The experiment in a line: Surface plasmon resonance (SPR) direct binding assay, immobilised Keap1 Kelch domain. The text has this: (§1) We based the design of our Nrf2-like cyclic peptides around the amino acid sequence of the ETGE motif (namely 12-mer ^73[…]^84L) and SAR studies reported in the literature.[9,10,12,14] The […] motif is known to adopt a beta-turn conformation upon binding to Keap1. Residues Q73-Q75 and L85 stabilise the bound conformation, L76-D77 and E79-G81 bind deep into the pocket with E79 and E82 forming electrostatic interactions with Keap1 and D77 and T80 stabilising the beta-turn via H-bonds with E78 not contributing to the binding. […] The ability of the cyclic peptides to bind to the Kelch domain of Keap1 was evaluated using surface plasma resonance (SPR), where the Kelch domain is immobilised onto a SPR sensor chip. Additionally, we assessed the ability of the peptides to inhibit the PPI between Nrf2 and the Kelch domain of Keap1 using a time-resolved FRET (TR-FRET) assay. Here, the IC50 for inhibition of the interaction between the human Keap1 Kelch domain and an Nrf2-ETGE peptide is measured.
(§2) Surface Plasmon Resonance (SPR)
(§3) Peptide affinities to the Kelch domain of Keap1 is determined in a direct binding assay using 8K surface plasmon resonance (SPR) biosensor (Cytiva) at 20°C. Immobilization of Keap1 Kelch domain on a CM5 sensor chip (Cytiva) is performed using standard amine coupling procedure. The surface is washed with 10mM NaOH, 1M NaCl before activated with EDC/NHS (Cytiva), followed by immobilization of human Keap1 Kelch domain (A321-T609) fused with N-terminal 6x His-tag7 (in 10 mM MES, pH=6.4).
(§4) Finally, the surface is deactivated by Ethanolamine. Immobilization levels are typically 5000-6000 RU.
(§5) The reference spot is treated as described, omitting the injection of Keap1. Compound concentration series are injected over the immobilized protein in increasing concentrations using single cycle kinetics (SCK) in running buffer (10 mM HEPES, 150 mM NaCl, 0.05% Tween20, 1 mM TCEP, pH 7.4). A 1:1 Langmuir interaction model is fitted to the experimental traces, enabling determination of kon, koff and […]
(§6) In the time-resolved Förster resonance energy transfer (TR-FRET) assay8 the IC50 of inhibitors which […]
(§7) are determined. The TR-FRET is measured between a Tb-labelled mAb (Anti—6-His, Tb cryptate Gold, CisBio 61H12TLB) that binds to Keap 1 Kelch domain and d2-labelled SA-biotin-peptide.
(§8) The assay was performed in 384-well white low-volume, medium binding plates (Greiner Bio One, Austria) in 20 mM HEPES pH 7.5, 150 mM NaCl, 2 mM GSH (Sigma-Aldrich, USA),1mM EDTA (Sigma-Aldrich, USA), and 0.01% Pluronic F127 (MilliporeSigma, USA), with a final reaction volume of 10 µL.
(§9) To determine the ability of synthesized peptide to inhibit PPI between the Keap1 Kelch domain and Nrf2, 1nM purified human Keap1 Kelch domain (A321-T609) fused with N-terminal 6x His-tag, 5 nM biotinylated Nrf2 peptide ([…], Genescript, USA), d2-labeled streptavidin (Revvity, USA), and […] anti-His monoclonal antibody tagged with terbium cryptate (Revvity, USA), were incubated in the presence of varying concentrations of investigated peptides for 3 h at room […]
(§10) 7 Li X, Zhang D, Hannink M, Beamer LJ. Crystallization and initial crystallographic analysis of the Kelch domain from human Keap1. Acta
(§11) 8 S. Lee, D. Ali Abed, L. J. Beamer, L. Hu, Development of a Homogeneous Time-Resolved Fluorescence Resonance Energy Transfer (TR-
(Surface plasmon resonance follows binding to a sensor surface in real time, without labels.)

Data set [4] concerns the target T2, interaction between the human Keap1 Kelch domain and an Nrf2-ETGE peptide (Homo sapiens, UniProt Q14145).
T2 construct: 1nM purified human Keap1 Kelch domain (A321-T609) fused with N-terminal 6x His-tag; made in house
Nature of the data set: Keap1-Nrf2 TR-FRET (HTRF) assay. The format is binding.
From the text: as §1, §2, §3, §4, §5, §6, §7, §8, §9, §10, §11
Following the incubation, the PHERAstar FSX […] microplate reader was used to measure the acceptor and donor emissions at 665 nm and 620 nm, respectively. The acceptor/donor ratio was used to calculate relative energy transfer. Data was normalized by two-point normalization using neutral and inhibitor controls (neutral control: DMSO, inhibitor control: 0.1nM 2-[[4-[carboxymethyl-(4-methoxyphenyl)sulfonylamino]naphthale n-1-yl]-(4-methoxyphenyl)sulfonylamino]acetic acid; […]
parameter logistic fit and IC50 values were calculated using Genedata screener software (Genedata, […]
(In general: Time-resolved FRET reads energy transfer from a long-lived donor to a nearby acceptor.)

Where [5] appears, read: Table 1, geometric mean ± sd of at least 3 independent repeats unless stated, 20°C.
Setting [6] is: Table 1, single cycle kinetics, 1:1 Langmuir model.
[7] abbreviates: Table 1, geometric mean ± sd of at least 3 independent repeats unless stated, read-out: TR-FRET IC50.

Like-named read-outs stand apart in the source and are kept apart here. *1 amine or outer side, *2 acyl side, *3 side chain or, on linkers, in order; H or OH if unused. Where a SMILES comes first, the peptide text is derived from it. Bridges are numbered along the chain shown (N, C = ends). Roman numbers before positions name the chains, in order. [ ]: non-standard residue; d: D form. X3 = CCCCCCCCCCCCCCCCCC(=O)NCCCC[C@H](NC(=O)COCCOCCNC(=O)COCCOCCn1cc(COCCOCCNc2nc(CC[*:1])cc(CC[*:2])n2)nn1)C(=O)NCCOCCOCC(=O)NCCOCCOCC(N)=O; X2 = O=C(CCCCn1cc(COCCOCCNc2nc(CC[*:1])cc(CC[*:2])n2)nn1)[*:3]

T1 sequence (Q14145 321-609): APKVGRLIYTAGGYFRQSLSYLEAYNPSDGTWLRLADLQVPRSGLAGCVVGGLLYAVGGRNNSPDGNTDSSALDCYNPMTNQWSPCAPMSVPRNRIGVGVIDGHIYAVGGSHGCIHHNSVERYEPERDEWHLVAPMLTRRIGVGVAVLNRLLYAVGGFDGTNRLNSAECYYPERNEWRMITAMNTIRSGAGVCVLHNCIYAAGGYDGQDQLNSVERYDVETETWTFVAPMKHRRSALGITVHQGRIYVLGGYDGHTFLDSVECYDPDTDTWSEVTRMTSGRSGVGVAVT
T2 sequence (Q14145 321-609): as above
Sequence of NQO1 gene expression in BEAS-2B cells (Homo sapiens) (Q14145 whole entry): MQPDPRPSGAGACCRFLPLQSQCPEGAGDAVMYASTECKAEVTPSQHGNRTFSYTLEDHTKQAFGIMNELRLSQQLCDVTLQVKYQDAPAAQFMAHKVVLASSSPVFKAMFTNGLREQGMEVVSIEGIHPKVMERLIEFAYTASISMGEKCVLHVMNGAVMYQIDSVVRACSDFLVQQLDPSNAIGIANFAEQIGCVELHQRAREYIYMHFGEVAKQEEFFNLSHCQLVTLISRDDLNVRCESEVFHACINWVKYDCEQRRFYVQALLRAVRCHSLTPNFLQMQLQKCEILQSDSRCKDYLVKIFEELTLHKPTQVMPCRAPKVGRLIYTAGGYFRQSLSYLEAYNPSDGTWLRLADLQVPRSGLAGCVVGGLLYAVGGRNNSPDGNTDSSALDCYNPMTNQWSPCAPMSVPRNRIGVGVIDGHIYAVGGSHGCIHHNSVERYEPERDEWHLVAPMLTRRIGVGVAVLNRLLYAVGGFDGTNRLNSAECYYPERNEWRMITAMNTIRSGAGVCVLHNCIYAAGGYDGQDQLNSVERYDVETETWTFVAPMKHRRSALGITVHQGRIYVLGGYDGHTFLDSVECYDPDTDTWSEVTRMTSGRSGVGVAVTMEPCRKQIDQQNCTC

Regarding `CC1(C)CC[C@]2(C(=O)O)CC[C@]3(C)[C@H](C(=O)C=C4[C@@]5(C)C=C(C#N)C(=O)C(C)(C)[C@@H]5CC[C@]43C)[C@@H]2C1` [Bardoxolone, reference compound], the “cytotoxicity in CellTiter Glo assay” value in data set [1] was “cytotoxic”.

Take `CC(=O)N[C@H]1CSCCc2cc(nc(NCCOCCOCc3cn(CCCCC(=O)NCC(=O)N[C@@H](Cc4c[nH]c5ccccc45)C(=O)N[C@@H](Cc4c[nH]c5ccccc45)C(=O)NCC(=O)N[C@H](CCCNC(=N)N)C(=O)N[C@H](CCCNC(=N)N)C(=O)N[C@H](CCCNC(=N)N)C(N)=O)nn3)n2)CCSC[C@@H](C(=O)N[C@@H](CC(C)C)C(N)=O)NC(=O)[C@H](CCC(=O)O)NC(=O)CNC(=O)[C@H]([C@@H](C)O)NC(=O)[C@H](CCC(=O)O)NC(=O)[C@@H]2CCCN2C(=O)[C@H](CC(=O)O)NC(=O)[C@H](CC(C)C)NC(=O)[C@H](CCC(N)=O)NC(=O)[C@H](CC(C)C)NC1=O` [Peptide P3-G] (I: Ac-CLQLDPETGECL-NH2 / II: GWWG[dR][dR][dR]-NH2; linker I:1-I:11-II:N via X2): the “induction of NQO1 mRNA (Nrf2-dependent gene expression)” value (shortened to “induction of NQO1 mRNA”) in data set [2] was “no activity was detected”.

`CCCCCCCCCCCCCCCCCC(=O)NCCCC[C@H](NC(=O)COCCOCCNC(=O)COCCOCCn1cc(COCCOCCNc2nc3cc(n2)CCSC[C@@H](C(=O)N[C@@H](CC(C)C)C(N)=O)NC(=O)[C@H](CCC(=O)O)NC(=O)CNC(=O)[C@H]([C@@H](C)O)NC(=O)[C@H](CCC(=O)O)NC(=O)[C@@H]2CCCN2C(=O)[C@H](CC(=O)O)NC(=O)[C@H](CC(C)C)NC(=O)[C@H](CCC(N)=O)NC(=O)[C@H](CC(C)C)NC(=O)[C@@H](NC(C)=O)CSCC3)nn1)C(=O)NCCOCCOCC(=O)NCCOCCOCC(N)=O` [Peptide P3-H] (Ac-CLQLDPETGECL-NH2; linker 1-11 via X3): the “induction of NQO1 mRNA” value in data set [2] is “did not induce Nrf2-dependent gene expression”.

`CC(=O)N[C@@H](CS)C(=O)N[C@@H](CC(C)C)C(=O)N[C@@H](CCC(N)=O)C(=O)N[C@@H](CC(C)C)C(=O)N[C@@H](CC(=O)O)C(=O)N1CCC[C@H]1C(=O)N[C@@H](CCC(=O)O)C(=O)N[C@H](C(=O)NCC(=O)N[C@@H](CCC(=O)O)C(=O)N[C@@H](CS)C(=O)N[C@@H](CC(C)C)C(N)=O)[C@@H](C)O` [Peptide P3] (Ac-CLQLDPETGECL-NH2) came in with a Kd in data set [3] (setting [5]) of 19 ± 1.8 nM. In data set [3] (setting [6]), this compound showed an off-rate (koff) of 0.0049 s⁻¹ and a kon of 180000 M⁻¹ s⁻¹. For the same compound, the IC50 in data set [4] (setting [7]) was 5 ± 1.5 nM.

Turning to `CC(=O)N[C@H]1CSCCc2cc(nc(NCCOCCOCc3cn(CCCCC(=O)NCC(=O)N[C@@H](Cc4c[nH]c5ccccc45)C(=O)N[C@@H](Cc4c[nH]c5ccccc45)C(=O)NCC(=O)N[C@H](CCCNC(=N)N)C(=O)N[C@H](CCCNC(=N)N)C(=O)N[C@H](CCCNC(=N)N)C(N)=O)nn3)n2)CCSC[C@@H](C(=O)N[C@@H](CC(C)C)C(N)=O)NC(=O)[C@H](CCC(=O)O)NC(=O)CNC(=O)[C@H]([C@@H](C)O)NC(=O)[C@H](CCC(=O)O)NC(=O)[C@@H]2CCCN2C(=O)[C@H](CC(=O)O)NC1=O` [Peptide P8-G], the “induction of NQO1 mRNA” value in data set [2] was “did not lead to any activity”.

Take `CCCCCCCCCCCCCCCCCC(=O)NCCCC[C@H](NC(=O)COCCOCCn1cc(COCCOCCNc2nc3cc(n2)CCSC[C@@H](C(=O)N[C@@H](CC(C)C)C(N)=O)NC(=O)[C@H](CCC(=O)O)NC(=O)CNC(=O)[C@H]([C@@H](C)O)NC(=O)[C@H](CCC(=O)O)NC(=O)[C@@H]2CCCN2C(=O)[C@H](CC(=O)O)NC(=O)[C@@H](NC(C)=O)CSCC3)nn1)C(=O)NCCOCCOCC(=O)NCCOCCOCC(N)=O` [Peptide P8-H]: the “cytotoxicity in CellTiter Glo assay” value in data set [1] is listed as “no cytotoxicity”.

In data set [3] (Table 2), `CC(=O)N[C@@H](CS)C(=O)N[C@@H](CC(=O)O)C(=O)N1CCC[C@H]1C(=O)N[C@@H](CCC(=O)O)C(=O)N[C@H](C(=O)NCC(=O)N[C@@H](CCC(=O)O)C(=O)N[C@@H](CS)C(=O)N[C@@H](CC(C)C)C(N)=O)[C@@H](C)O` [Peptide P8] gave an off-rate constant (koff) of 0.0055 s⁻¹ and an association rate constant (kon) of 95000 M⁻¹ s⁻¹. In data set [3] (Table 2, geometric mean ± sd of at least two independent repeats), this compound yielded a dissociation constant (Kd) of 56 ± 1.3 nM. For the same compound, in data set [4] (Table 2, IC50, minimum of three repeats, read-out: TR-FRET), the IC50 was determined as 4.9 ± 1.2 nM.

Ac-LQLDPETGEFL-NH2 [reference compound] showed a Kd in data set [3] (setting [5]) of 52 ± 1.4 nM. Also, in data set [3] (setting [6]), the koff is 0.0079 s⁻¹ and the kon came to 170000 M⁻¹ s⁻¹. Moreover, the “induction of NQO1 mRNA” value in data set [2] is recorded as “did not lead to any induction”. The IC50 in data set [4] (setting [7]) stood at 5.3 ± 1.2 nM.

As usually defined, the Kd is the free concentration of one partner at which half of the binding sites on the other are occupied at equilibrium, for simple one-to-one binding. Lower therefore signals a tighter complex. What is called koff is the first-order rate constant of dissociation. A high value points to a short-lived complex. Broadly, the kon is the rate constant with which the complex forms.

The values above are taken from paper PMC10566475, “A cell-active cyclic peptide targeting the Nrf2/Keap1 protein–protein interaction” (Chemical Science, 2023).
